Laboratory results taken from patent US20040091578A1 (priority 2001, published 2004).
Like-named read-outs stand apart in the source and are kept apart here.

Columns and labels:
Glutenin 60-110 kDa = assay: Reductant specificity of glutenins, mBBr/SDS-PAGE; format: biochemical, Triticum durum
Experimental: (§1) For isolation of insoluble storage proteins, semolina (0.2 g) was extracted sequentially with 1 ml of the following solutions for the indicated times at 25° C.: (1) 50 mM Tris-HCl, pH 7.5 (20 min); (2) 70% ethanol (2 hr); and (3) 0.1 M acetic acid (2 hr). During extraction, samples were placed on an electrical rotator and, in addition, occasionally agitated with a vortex mixer. After extraction with each solvent, samples were centrifuged (12,000 rpm for 5 min) in an Eppendorf microfuge and, supernatant fractions were saved for analysis. In between each extraction, pellets were washed with 1 ml of water, collected by centrifugation as before and the supernatant wash fractions were discarded. By convention, the fractions are designated: (1) albumin/globulin; (2) gliadin; and (3) glutenin.
(§2) Reactions were carried out in 100 mM Tris-HCl buffer, pH 7.9. As indicated, 0.7 μg NTR and 1 μg thioredoxin (both from E. coli unless specified otherwise) were added to 70 μl of this buffer containing 1 mM NADPH and 10 μg of target protein.
(§3) SDS-polyacrylamide electrophoresis of the mBBr-derivatized samples was performed in 15% gels at pH 8.5 as described by Laemmli, U. K. (1970), Nature 227:680-685. Gels of 1.5 mm thickness were developed for 16 hr. at a constant current of 9 mA.
(§4) The Polaroid negatives of fluorescent gels and prints of wet protein stained gels were scanned with a laser densitometer (Pharmacia-LKB UltroScan XL). Fluorescence was quantified by evaluating peak areas after integration with GelScan XL software.

Glutenin 30-40 kDa = assay: Reductant specificity of glutenins, mBBr/SDS-PAGE; format: biochemical, Triticum durum
Experimental: as §1, §2, §3, §4

[1] = system: dogs sensitized to cow's milk; assay: Skin tests, ED50 and relative allergenicity (Example 44); format: in vivo, dog; conditions: all dogs tested
Experimental: Reduction and Blocking of Protein Disutfide Bond. […] Following gel filtration with a Sephadex G-25 column (Amersham Pharmacia) to remove reductants, the reduced protein (less than 0.25 mg/ml) was incubated either without addition or with 10 mM oxidized glutathione (GSSG) or 10 mM cystamine for 3 days on ice. The mixtures were then subjected to a second gel filtration on a Sephadex G-25 column to remove excess GSSG and cystamine. If necessary, the resultant preparations were concentrated by ultrafiltration with Centricon YM-3 filter (Millipore). Heat treatment of NTS-reduced BLG was carried out for 1 hour at 55° C. after reduction at 4° C. overnight. Raw cow's milk (47 mg protein/ml) was reduced with 50 mM DTT and blocked with cystamine and GSSG as described above for BLG. Heated milk was prepared by incubation for 1 hour at 55° C. and gel filtration with A Sephadex G-25 column.
Skin Tests. The background of the dog colony, immunization schedule and procedure for skin testing have been previously described in Examples 36-39 and also in del Val et al., 1999, Buchanan et al., 1997, Ermel et al., 1997, Frick and Brooks, 1983, herein incorporated by reference. Here, 3 litters of the 7th generation designated 7FA, 7FB and 7FC were immunized with commercial preparations (Bayer) of cow's milk, soybean and other food extracts (wheat or barley and walnut, Brazil nut and peanut) and also ragweed pollen. BLG samples for testing were prepared in half-log dilutions with PBS; 100 μL of each dilution was injected intradermally on the dog's abdomen.
Estimation of Relative Allergenicity. Wheal area of each spot was plotted by the Lineweaver-Burk double-reciprocal plot to obtain the maximum wheal area. The log of the dose of BLG that effects a half-maximum of wheal area with the control sample, termed Effective Dose 50 (ED50), was calculated and used for statistical analysis. For simplification, ratio of the reciprocal of ED50 to that of the control sample is presented below as relative allergenicity.

allergic dogs = assay: Skin tests with giant ragweed pollen extract; format: in vivo, dog
Experimental: Reduction of pollen proteins by the thioredoxin system. Giant ragweed allergen extract, purchased from Bayer Inc., was analyzed for protein by the Bradford assay using bovine γ-globulin as standard (Wong, J. H. et al. (1995) “Thioredoxin and seed proteins” Methods Enzymol 252:228-240). […] The extent of reduction was determined by the SDS-PAGE/monobromobimane procedure as previously described above and also as described by Wong et al. (Ibid.). Gels were visualized under U.V.
Skin tests. Procedures to measure the type I hypersensitivity reaction by skin tests in allergic […] were substantially the same to those previously described above (see, Examples 36, 37 and 39). In brief, Evans blue dye 0.5% (0.2 ml/kg) was injected intravenously 5 minutes prior to skin testing. Aliquots of 0.1 ml of pollen allergen extract were injected intradermally on ventral abdominal skin in half-log dilutions. Skin tests were read blindly by the same experienced blinded observer scoring two perpendicular diameters for each blue spot. Appropriate negative controls (diluted in PBS) were included for each animal tested.
Data analysis. The statistical significance of the skin test results showing the thioxedoxin-linked mitigation of pollen allergens was determined by paired one-tailed, t-tests. […] The t-tests were completed for each dilution series (0.07 to 219 ng allergen) at 0.05 level of significance on all sensitive dogs (df≅8).

trypsin = assay: Trypsin proteolysis of purified milk allergens; format: biochemical; conditions: 10 μg NTS reduced protein, 2 μg trypsin
Experimental: The analysis of the reduction was done using the mBBr/SDS-PAGE techniques. Further in this study, when 10 μg of an NTS reduced purified milk allergen protein, β-lactoglobulin (Sigma Chemical Co.), was treated with 2 μg of trypsin, proteolysis was 100% as compared with only 50% for the identically trypsin treated oxidized β-lactoglobulin. […] However, 10 μg of purified α-lactalbumin reduced by the NTS was proteolyzed 80% by trypsin. Also 10 μg of α-lactalbumin reduced by 0.8 μg of thioredoxin and 0.5 mM DTT was 100% proteolyzed by 2 μg of trypsin.

Molecule: N[C@@H](CCC(=O)N[C@@H](CS)C(=O)NCC(=O)O)C(=O)O [Glutathione, glutathione, reference compound]
- Glutenin, % Relative Reduction, 60-110 kDa (Glutenin 60-110 kDa): 31%
- Glutenin, % Relative Reduction, 30-40 kDa (Glutenin 30-40 kDa): 29%

Molecule: NTS-reduced & heated: BLG heated for 1 hour at 55° C. following NTS-reduction at 4° C. overnight
- times less allergenic than native (control) BLG, from ED50 [1]: about 5 times

Molecule: NTS/CYM: BLG treated with cystamine following NTS-reduction
- times less allergenic than native (control) BLG, from ED50 [1]: about 2.5 times

Molecule: NTS/GSSG: BLG treated with GSSG following NTS-reduction
- times less allergenic than native (control) BLG, from ED50 [1]: about 2.5 times

Molecule: Thioredoxin: E. coli thioredoxin reduced by NADPH and NTR
- Mitigation of skin test response (allergic dogs; Allergen 0.07 ng): Not Signiticant
- Mitigation of skin test response (allergic dogs; Allergen 0.22 ng): Not Significant
- Mitigation of skin test response (allergic dogs; Allergen 0.66 ng): Significant
- Mitigation of skin test response (allergic dogs; Allergen 2.2 ng): Significant
- Mitigation of skin test response (allergic dogs; Allergen 6.6 ng): Significant
- Mitigation of skin test response (allergic dogs; Allergen 22 ng): Significant
- Mitigation of skin test response (allergic dogs; Allergen 66 ng): Significant
- Mitigation of skin test response (allergic dogs; Allergen 219 ng, paired one tail t test, P 0.05): Not Significant
- Glutenin, % Relative Reduction, 60-110 kDa (Glutenin 60-110 kDa; thioredoxin (NTS) = 100): 100%
- Glutenin, % Relative Reduction, 30-40 kDa (Glutenin 30-40 kDa; thioredoxin (NTS) = 100): 100%

B1: Glutaredoxin: E. coli glutaredoxin with NADPH, reduced glutathione and glutathione reductase (NGS) (protein, UniProt P68688 1-85, looked up)
Glutaredoxin 1: MQTVIFGRSGCPYCVRAKDLAEKLSNERDDFQYQYVDIRAEGITKEDLQQKAGKPVETVPQIFVDQQHIGGYTDFAAWVKENLDA
modifications: with NADPH, glutathione, glutathione reductase
- Glutenin, % Relative Reduction, 60-110 kDa (Glutenin 60-110 kDa; thioredoxin (NTS) = 100): 50%
- Glutenin, % Relative Reduction, 30-40 kDa (Glutenin 30-40 kDa; thioredoxin (NTS) = 100): 40%

B2: α-lactalbumin: purified milk allergen (Sigma) (protein, UniProt P00711 20-142, looked up)
Alpha-lactalbumin: EQLTKCEVFRELKDLKGYGGVSLPEWVCTTFHTSGYDTQAIVQNNDSTEYGLFQINNKIWCKDDQNPHSSNICNISCDKFLDDDLTDDIMCVKKILDKVGINYWLAHKALCSEKLDQWLCEKL
- proteolysis by trypsin (trypsin): 80%
